Our source for the IC50 values is patent US12091385B2, “Pyridinylcyanoguanidine derivative and use thereof” (Rushi Biotech (Hangzhou) Co., Ltd, priority 2021, dated 2024).

Format in all cases: cell-based
In test [1] the test system is Human pancreatic cancer cell CFPAC-1. The test is described as follows: CCK-8 cell proliferation assay, CFPAC-1. The conditions noted are these: CFPAC-1 cells, 72 hrs with drug, CCK-8, OD 450 nm. As to the method:
(§1) The effect of samples on the proliferation of human tumor cells in vitro was determined by CCK-8 cell proliferation assay.
(§2) The cells were assayed through a method including the following steps: • 1) The cells were digested, counted, and prepared into a cell suspension in a corresponding culture medium (Table 1) (5×10^4 cells/ml for CFPAC-1 and RPMI 8226, and 3.5×10^4 cells/ml for rest cells). The cell suspension was added to each well of a 96-well plate in 100 μl/well. • 2) Then the 96-well plate was incubated for 24 hrs in an incubator at 37° C. and 5% CO2. • 3) The drug was diluted with the culture medium to the required working concentration. 100 μl of the corresponding drug containing medium was added to each well.

Test [2] has as its system Human lung adenocarcinoma cell A549. The test is described as follows: CCK-8 cell proliferation assay, A549. To be noted: A549 cells, 72 hrs with drug, CCK-8, OD 450 nm. As to the method: as §1, §2
Test [3] deals with Human colon cancer cell HCT-116. The test is described as follows: CCK-8 cell proliferation assay, HCT-116. To be noted: HCT116 cells, 72 hrs with drug, CCK-8, OD 450 nm. On the procedure: as §1, §2
The subject of test [4] is Human gastric cancer cell MKN45. The test is described as follows: CCK-8 cell proliferation assay, MKN45. To be noted: MKN-45 cells, 72 hrs with drug, CCK-8, OD 450 nm. As to the method: as §1, §2
Test [5] deals with Human multiple myeloma cell RPMI 8226. The test is described as follows: CCK-8 cell proliferation assay, RPMI 8226. To be noted: RPMI8226 cells, 72 hrs with drug, CCK-8, OD 450 nm. On the procedure: as §1, §2
The test system of test [6] is Human esophageal cancer cell TE-1. The test is described as follows: CCK-8 cell proliferation assay, TE-1. To be noted: TE-1 cells, 72 hrs with drug, CCK-8, OD 450 nm. As to the method: as §1, §2
Test [7] deals with Human hepatoma cell HepG2. The test is described as follows: CCK-8 cell proliferation assay, HepG2. To be noted: HepG2 cells, 72 hrs with drug, CCK-8, OD 450 nm. As to the method:
as §1, §2

The structures appear in SMILES notation.

`N#CN=C(NCCCCCC1CCN(C(=O)c2cccs2)C1)Nc1cccnc1` (stereo not shown) [BSS-PC043, 2-cyano-1-(5-(1-(2-thienylformyl)pyrrolidine-3-yl)pentyl)-3-(3-pyridinyl)guanidine]: the IC50 in test [1] was 36 nM; in test [2], 45 nM; in test [3], 51 nM; in test [4], 69 nM; in test [5], 29 nM; in test [6], 92 nM. The same compound returned an IC50 in test [7] of 83 nM.
For `N#CN=C(NCCCCCC1CCN(C(=O)c2ccccc2)C1)Nc1cccnc1` (stereo not shown) [BSS-PC044, 2-cyano-1-(5-((1-benzoyl)pyrrolidine-3-yl)pentyl)-3-(3-pyridinyl)guanidine], the IC50 came out at 38 nM in test [1]; 41 nM in test [2]; 40 nM in test [3]; 53 nM in test [4]; 20 nM in test [5]; 34 nM in test [6]. This compound gave an IC50 in test [7] of 42 nM.
Consider `N#CN=C(NCCCCCC1CCN(C(=O)c2cc3ccccc3[nH]2)C1)Nc1ccncc1` (stereo not shown) [BSS-PC045, 2-cyano-1-(5-(1-(2-indolylformyl)pyrrolidine-3-yl)pentyl)-3-(4-pyridinyl)guanidine], for which the IC50 in test [1] stood at 64 nM; in test [2], 79 nM; in test [3], 86 nM; in test [4] it was 58 nM; in test [5], 52 nM; in test [6], 90 nM. This compound came in with a half-inhibitory concentration (IC50) in test [7] of 117 nM.
Consider `N#CN=C(NCCCCCC1CCN(C(=O)C2Cc3ccccc3O2)C1)Nc1ccncc1` (stereo not shown) [BSS-PC046, 2-cyano-1-(5-(1-(2-benzotetrahydrofurylfuryl)pyrrolidine-3-yl)pentyl)-3-(4-pyridinyl)guanidine], for which the IC50 in test [1] turned out to be 42 nM; in test [2] it was 71 nM; in test [3] it was 74 nM; in test [4], 61 nM; in test [5] it was 45 nM; in test [6], 83 nM. For the same compound, the IC50 in test [7] stood at 85 nM.
For the compound `N#CN=C(NCCCCCC1CCN(C(=O)c2cc3ccccc3o2)C1)Nc1ccncc1` (stereo not shown) [BSS-PC047, 2-cyano-1-(5-(1-(2-benzofurylformyl)pyrrolidine-3-yl)pentyl)-3-(4-pyridinyl)guanidine], the IC50 in test [1] was 50 nM; in test [2], 66 nM; in test [3], 63 nM; in test [4], 55 nM; in test [5] it was 42 nM; in test [6] it was 68 nM. Moreover, the IC50 in test [7] was determined as 79 nM.
For `N#CN=C(NCCCCCC1CCN(C(=O)c2occc2F)C1)Nc1ccncc1` (stereo not shown) [BSS-PC048, 2-cyano-1-(5-(1-(3-fluoro-2-furylformyl)pyrrolidine-3-yl)pentyl)-3-(4-pyridinyl)guanidine], the IC50 was 36 nM in test [1]; 42 nM in test [2]; 60 nM in test [3]; 34 nM in test [4]; 33 nM in test [5]; 51 nM in test [6]. In addition, half-maximal inhibition in test [7] (IC50) required 47 nM.
On to `N#CN=C(NCCCCCC1CCN(C(=O)c2[nH]ccc2F)C1)Nc1ccncc1` (stereo not shown) [BSS-PC049, 2-cyano-1-(5-(1-(3-fluoro-2-pyrrolylformyl)pyrrolidine-3-yl)pentyl)-3-(4-pyridinyl)guanidine], for which the IC50 in test [1] came out at 31 nM; in test [2] it was 35 nM; in test [3] it was 55 nM; in test [4] it was 42 nM; in test [5], 29 nM; in test [6], 74 nM. The IC50 in test [7] is 57 nM.
Consider `N#CN=C(NCCCCCC1CCN(C(=O)c2sccc2F)C1)Nc1ccncc1` (stereo not shown) [BSS-PC050, 2-cyano-1-(5-(1-(3-fluoro-2-thienylformyl)pyrrolidine-3-yl)pentyl)-3-(4-pyridinyl)guanidine], for which the IC50 is 41 nM in test [1]; 39 nM in test [2]; 87 nM in test [3]; 33 nM in test [4]; 32 nM in test [5]; 52 nM in test [6]. The IC50 in test [7] worked out at 68 nM.
On to `N#CN=C(NCCCCCC1CCN(C(=O)c2ccco2)C1)Nc1cccnc1` (stereo not shown) [BSS-PC051], for which the IC50 in test [1] was 33 nM; in test [2], 51 nM; in test [3], 39 nM; in test [4] it was 31 nM; in test [5] it was 27 nM; in test [6], 40 nM. In addition, 42 nM corresponded to half-maximal inhibition in test [7] (IC50).
In the case of `COc1cccc(OC)c1C(=O)N1CCC(CCCCCNC(=NC#N)Nc2cccnc2)C1` (stereo not shown) [BSS-PC052, 2-cyano-1-(5-(1-(2,6-dimethoxybenzoyl)pyrrolidine-3-yl)pentyl)-3-(3-pyridinyl)guanidine], the IC50 in test [1] turned out to be 29 nM; in test [2], 29 nM; in test [3], 57 nM; in test [4], 40 nM; in test [5], 24 nM; in test [6] it was 39 nM. In test [7], this compound gave a concentration for half-maximal inhibition (IC50) of 44 nM.
`N#CN=C(NCCCCCCC1CCN(C(=O)c2cccs2)C1)Nc1ccncc1` (stereo not shown) [BSS-PC053, 2-cyano-1-(6-(1-(2-thienylformyl)pyrrolidine-3-yl)hexyl)-3-(4-pyridinyl)guanidine]: the IC50 in test [1] came out at 22 nM; in test [2] it was 25 nM; in test [3], 43 nM; in test [4], 34 nM; in test [5] it was 22 nM; in test [6], 30 nM. Further, the IC50 in test [7] turned out to be 31 nM.
On to `N#CN=C(NCCCCCCC1CCN(C(=O)c2ccccc2)C1)Nc1ccncc1` (stereo not shown) [BSS-PC054, 2-cyano-1-(6-((1-benzoyl)pyrrolidine-3-yl)hexyl)-3-(4-pyridinyl)guanidine], for which the IC50 in test [1] is 39 nM; in test [2] it was 33 nM; in test [3], 52 nM; in test [4], 49 nM; in test [5], 30 nM; in test [6], 46 nM. This compound also showed an IC50 in test [7] of 57 nM.
For `COc1cccc(OC)c1C(=O)N1CCC(CCCCCCNC(=NC#N)Nc2ccncc2)C1` (stereo not shown) [BSS-PC055, 2-cyano-1-(6-(1-(2,6-dimethoxybenzoyl)pyrrolidine-3-yl)hexyl)-3-(4-pyridinyl)guanidine], the IC50 stood at 47 nM in test [1]; 50 nM in test [2]; 82 nM in test [3]; 61 nM in test [4]; 41 nM in test [5]; 90 nM in test [6]. In test [7], the IC50 was determined as 88 nM.
Consider `N#CN=C(NCCCCCCC1CCN(C(=O)c2ccc[nH]2)C1)Nc1ccncc1` (stereo not shown) [BSS-PC056, 2-cyano-1-(6-(1-(2-pyrrolylformyl)pyrrolidine-3-yl)hexyl)-3-(4-pyridinyl)guanidine], for which the IC50 in test [1] was determined as 44 nM; in test [2], 47 nM; in test [3] it was 73 nM; in test [4], 39 nM; in test [5], 33 nM; in test [6], 42 nM. The compound further gave an IC50 in test [7] of 39 nM.
`N#CN=C(NCCCCCCC1CCN(C(=O)c2ccco2)C1)Nc1ccncc1` (stereo not shown) [BSS-PC057, 2-cyano-1-(6-(1-(furoyl)pyrrolidine-3-yl)hexyl)-3-(4-pyridinyl)guanidine]: the IC50 was 37 nM in test [1]; 53 nM in test [2]; 69 nM in test [3]; 31 nM in test [4]; 51 nM in test [5]; 60 nM in test [6]. Also, it took 64 nM to reach half-maximal inhibition in test [7] (IC50).
Regarding `N#CN=C(NCCCCCCC1CCN(C(=O)C2CCCS2)C1)Nc1ccncc1` (stereo not shown) [BSS-PC058, 2-cyano-1-(6-(1-(2-tetrahydrothienylformyl)pyrrolidine-3-yl)hexyl)-3-(4-pyridinyl)guanidine], the IC50 in test [1] turned out to be 52 nM; in test [2], 42 nM; in test [3], 82 nM; in test [4] it was 69 nM; in test [5] it was 43 nM; in test [6], 71 nM. The same compound gave an IC50 in test [7] of 75 nM.
As to `N#CN=C(NCCCCCCC1CCN(C(=O)c2ccccc2)C1)Nc1cccnc1` (stereo not shown) [BSS-PC059, 2-cyano-1-(6-((1-benzoyl)pyrrolidine-3-yl)hexyl)-3-(3-pyridinyl)guanidine], the IC50 in test [1] worked out at 46 nM; in test [2] it was 43 nM; in test [3], 86 nM; in test [4], 47 nM; in test [5], 35 nM; in test [6] it was 99 nM. The same compound returned an IC50 in test [7] of 92 nM.
With `N#CN=C(NCCCCCCC1CCN(C(=O)c2cccs2)C1)Nc1cccnc1` (stereo not shown) [BSS-PC060, 2-cyano-1-(6-(1-(2-thienylformyl)pyrrolidine-3-yl)hexyl)-3-(3-pyridinyl)guanidine], the IC50 was 31 nM in test [1]; 31 nM in test [2]; 97 nM in test [3]; 78 nM in test [4]; 38 nM in test [5]; 85 nM in test [6]. This compound also returned an IC50 in test [7] of 101 nM.
Take `N#CN=C(NCCCCCCC1CCN(C(=O)c2ccc[nH]2)C1)Nc1cccnc1` (stereo not shown) [BSS-PC061, 2-cyano-1-(6-(1-(2-pyrrolylformyl)pyrrolidine-3-yl)hexyl)-3-(3-pyridinyl)guanidine]: the IC50 in test [1] was found to be 45 nM; in test [2], 57 nM; in test [3] it was 87 nM; in test [4], 65 nM; in test [5], 33 nM; in test [6], 103 nM. For the same compound, inhibition in test [7] was half-maximal at 122 nM (IC50).
